pEC50, pIC50: −log10 of the molar value.
What was measured:
K-Ras G13C = K-Ras G13C (Homo sapiens (Human), UniProt P01116+P62937, G13C); assay: Ras-Raf (BRAF RBD) disruption / FRET / MOA assay, KRAS G13C; format: biochemical; details: KRAS G13C; Ras-Raf disruption/FRET/MOA assay; read-out: IC50* KRAS G13C FRET data
In short: (§1)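 TR-FRET read-out: a drop in ratio relative to DMSO wells marks disruption of the Ras:RAF complex, reported as IC50. Compounds (3-fold series, 10 points, top 30 μM final) incubated 3 h at 25° C before Eu-anti-His 10 nM and APC-anti-GST 50 nM, 1.5 h more.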

KRAS WT = KRAS WT (Homo sapiens (Human), UniProt P01116+P62937); assay: Ras-Raf (BRAF RBD) disruption / FRET / MOA assay, KRAS WT; format: biochemical; details: read-out: IC50* KRAS WT FRET data
KRAS WT, sequence (P01116-2 other isoform, or with tags, fused parts or gaps): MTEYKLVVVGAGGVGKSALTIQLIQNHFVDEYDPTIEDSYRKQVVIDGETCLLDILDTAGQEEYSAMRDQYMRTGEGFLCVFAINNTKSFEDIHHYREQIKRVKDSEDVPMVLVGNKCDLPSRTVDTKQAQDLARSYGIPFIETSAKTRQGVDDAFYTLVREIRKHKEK
KRAS WT, sequence (P62937 whole entry): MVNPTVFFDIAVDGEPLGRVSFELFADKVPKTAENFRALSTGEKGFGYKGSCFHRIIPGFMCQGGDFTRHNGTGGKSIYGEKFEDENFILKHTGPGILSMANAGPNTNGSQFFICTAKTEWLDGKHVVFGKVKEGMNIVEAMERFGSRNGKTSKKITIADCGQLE
In short: as §1

KRAS G12D = KRAS G12D (Homo sapiens (Human), UniProt P01116+P62937, G12D); assay: Ras-Raf (BRAF RBD) disruption / FRET / MOA assay, KRAS G12D; format: biochemical; details: Ras-Raf disruption/FRET/MOA assay; class symbols; read-out: KRAS G12D FRET data IC50
KRAS G12D, sequence (P01116-2 other isoform, or with tags, fused parts or gaps G12D): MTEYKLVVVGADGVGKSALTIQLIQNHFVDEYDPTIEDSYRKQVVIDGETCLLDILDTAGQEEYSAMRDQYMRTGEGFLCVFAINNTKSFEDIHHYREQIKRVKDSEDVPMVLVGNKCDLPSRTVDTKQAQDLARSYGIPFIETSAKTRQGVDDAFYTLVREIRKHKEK
KRAS G12D, sequence (P62937 whole entry): as the sequence (P62937 whole entry) above
In short: as §1

NRAS G12C = NRAS G12C (Homo sapiens (Human), UniProt P01111+P62937, G12C); assay: Ras-Raf (BRAF RBD) disruption / FRET / MOA assay, NRAS G12C; format: biochemical; details: read-out: IC50* NRAS G12C FRET data
NRAS G12C, sequence (P01111 whole entry G12C): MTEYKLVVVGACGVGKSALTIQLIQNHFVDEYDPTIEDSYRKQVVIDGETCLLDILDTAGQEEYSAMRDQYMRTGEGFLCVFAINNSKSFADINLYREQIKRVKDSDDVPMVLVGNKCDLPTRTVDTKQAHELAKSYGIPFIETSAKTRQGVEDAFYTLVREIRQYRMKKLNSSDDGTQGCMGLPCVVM
NRAS G12C, sequence (P62937 whole entry): as the sequence (P62937 whole entry) above
In short: as §1

[1] = test system: NCI-H358 cells (K-Ras G12C); assay: Potency assay: pERK in NCI-H358 cells; format: cell-based, human; details: Homo sapiens, NCI-H358; H358 KRAS G12C; read-out: pERK EC50
In short: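 pERK decrease read by AlphaLISA SureFire p-ERK1/2 or In-Cell Western after 4 h compound exposure at 37 °C, 5% CO2.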

K-Ras G12C = K-Ras G12C (Homo sapiens (Human), UniProt P01116+P62937, G12C); assay: Ras-Raf (BRAF RBD) disruption / FRET / MOA assay, KRAS G12C; format: biochemical; details: KRAS G12C; Ras-Raf disruption/FRET/MOA assay; read-out: IC50* KRAS G12C FRET data
K-Ras G12C, sequence (P01116-2 other isoform, or with tags, fused parts or gaps G12C): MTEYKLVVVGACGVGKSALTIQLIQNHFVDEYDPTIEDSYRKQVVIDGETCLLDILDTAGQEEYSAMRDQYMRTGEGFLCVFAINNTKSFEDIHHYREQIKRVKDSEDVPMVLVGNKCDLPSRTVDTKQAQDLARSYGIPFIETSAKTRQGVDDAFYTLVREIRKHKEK
K-Ras G12C, sequence (P62937 whole entry): as the sequence (P62937 whole entry) above
In short: as §1

KRAS G12V = KRAS G12V (Homo sapiens (Human), UniProt P01116+P62937, G12V); assay: Ras-Raf (BRAF RBD) disruption / FRET / MOA assay, KRAS G12V; format: biochemical; details: read-out: IC50* KRAS G12V FRET data
KRAS G12V, sequence (P01116-2 other isoform, or with tags, fused parts or gaps G12V): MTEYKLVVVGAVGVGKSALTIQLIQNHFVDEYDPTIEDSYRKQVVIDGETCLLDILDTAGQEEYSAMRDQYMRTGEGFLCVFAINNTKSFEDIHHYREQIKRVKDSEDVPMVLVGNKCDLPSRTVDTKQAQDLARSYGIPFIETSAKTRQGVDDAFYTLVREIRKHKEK
KRAS G12V, sequence (P62937 whole entry): as the sequence (P62937 whole entry) above
In short: as §1

NCI-H358 (K-Ras G12C) = assay: CellTiter-Glo cell viability assay, NCI-H358; format: cell-based, human; details: Homo sapiens, NCI-H358, 120 h, NCI-H358, 5-day treatment; class symbols; read-out: Additional H358 Cell Viability assay data (K-Ras G12C, IC50)
In short: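 Compounds dispensed directly onto seeded K-Ras mutant cells; plates read on day 5 after ~30 min equilibration to room temperature, by CellTiter-Glo luminescence. Signal normalized as (sample/mean DMSO)×100, then fitted to a four-parameter logistic curve.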

KRAS G12S = KRAS G12S (Homo sapiens (Human), UniProt P01116+P62937, G12S); assay: Ras-Raf (BRAF RBD) disruption / FRET / MOA assay, KRAS G12S; format: biochemical; details: Ras-Raf disruption/FRET/MOA assay; class symbols; read-out: KRAS G12S FRET data IC50
KRAS G12S, sequence (P01116-2 other isoform, or with tags, fused parts or gaps G12S): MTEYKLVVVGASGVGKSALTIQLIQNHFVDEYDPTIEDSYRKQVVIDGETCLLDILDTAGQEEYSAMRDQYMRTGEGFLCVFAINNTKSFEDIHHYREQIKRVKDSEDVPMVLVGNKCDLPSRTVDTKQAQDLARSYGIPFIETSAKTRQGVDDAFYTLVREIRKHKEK
KRAS G12S, sequence (P62937 whole entry): as the sequence (P62937 whole entry) above
In short: as §1

KRAS G13D = KRAS G13D (Homo sapiens (Human), UniProt P01116+P62937, G13D); assay: Ras-Raf (BRAF RBD) disruption / FRET / MOA assay, KRAS G13D; format: biochemical; details: read-out: IC50* KRAS G13D FRET data
KRAS G13D, sequence (P01116-2 other isoform, or with tags, fused parts or gaps G13D): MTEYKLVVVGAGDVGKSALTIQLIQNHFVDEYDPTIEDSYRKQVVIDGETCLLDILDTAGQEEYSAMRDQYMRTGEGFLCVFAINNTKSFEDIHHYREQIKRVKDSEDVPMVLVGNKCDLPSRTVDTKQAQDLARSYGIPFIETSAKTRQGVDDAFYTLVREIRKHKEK
KRAS G13D, sequence (P62937 whole entry): as the sequence (P62937 whole entry) above
In short: as §1

K-Ras G13C, sequence (P01116-2 other isoform, or with tags, fused parts or gaps G13C): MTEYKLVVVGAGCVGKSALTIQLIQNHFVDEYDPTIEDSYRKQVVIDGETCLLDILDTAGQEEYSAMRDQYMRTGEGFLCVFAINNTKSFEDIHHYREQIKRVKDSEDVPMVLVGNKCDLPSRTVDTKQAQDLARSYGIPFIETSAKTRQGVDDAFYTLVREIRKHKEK
K-Ras G13C, sequence (P62937 whole entry): as the sequence (P62937 whole entry) above

| Compound | pIC50 (K-Ras G13C) | pIC50 (KRAS WT) | pIC50 (KRAS G12D) | pIC50 (NRAS G12C) | pEC50 [1] | pIC50 (K-Ras G12C) | pIC50 (KRAS G12V) | pIC50 (NCI-H358 (K-Ras G12C)) | pIC50 (KRAS G12S) | pIC50 (KRAS G13D) |
| --- | --- | --- | --- | --- | --- | --- | --- | --- | --- | --- |
| CCn1c(-c2cccnc2)c2c3cc(ccc31)-c1cccc(c1)C[C@H](NC(=O)[C@H](C(C)C)N(C)C(=O)[C@H]1CCN(C(=O)C#CCN(C)C)C1)C(=O)N1CCC[C@H](N1)C(=O)OCC(C)(C)C2 [Example A152] | 5.00 to 6.00 | 5.00 to 6.00 | 5.00 to 6.00 | 7.00 to 8.00 | > 5.30 | 7.00 to 8.00 | 5.00 to 6.00 | 7.00 to 8.00 | < 5.00 | 5.00 to 6.00 |
| CCn1c(-c2cccnc2COC)c2c3cc(ccc31)-c1cc(O)cc(c1)C[C@H](NC(=O)[C@@H](C(C)C)N(C)C(=O)[C@H]1CCN(C(=O)C#CCN3CCOCC3)C1)C(=O)N1CCC[C@H](N1)C(=O)OCC(C)(C)C2 [Example A200] | 5.00 to 6.00 | < 5.00 | < 5.00 | 7.00 to 8.00 | > 5.30 | 7.00 to 8.00 | < 5.00 | 6.00 to 7.00 | < 5.00 | < 5.00 |
| C=CC(=O)N1CC[C@H](C(=O)N(C)[C@H](C(=O)N[C@H]2Cc3csc(n3)-c3ccc4c(c3)c(c(-c3cccnc3COC)n4CC)CC(C)(C)COC(=O)[C@@H]3CCCN(N3)C2=O)C(C)C)C1 [Example A118, (2S)-N-[(7S,13S)-21-ethyl-20-[2-(methoxymethyl)pyridin-3-yl]-17,17-dimethyl-8,14-dioxo-15-oxa-3-thia-9,21,27,28-tetraazapentacyclo[17.5.2.1^2,^5.1^9,^13.0^22,^26]octacosa-1(25),2(28),4,19,22(26),23-hexaen-7-yl]-3-methyl-2-{N-methyl-1-[(3S)-1-(prop-2-enoyl)pyrrolidin-3-yl]formamido}butanamide] | < 5.00 | < 5.00 | < 5.00 | 6.00 to 7.00 | > 5.30 | 6.00 to 7.00 | < 5.00 | 6.00 to 7.00 | < 5.00 | < 5.00 |
| CCn1c(-c2cccnc2[C@H](C)OC)c2c3cc(ccc31)-c1cc(O)cc(c1)C[C@H](NC(=O)[C@H](C(C)C)N(C)C(=O)[C@H]1CCN(C(=O)C#CC(C)(C)N(C)C)C1)C(=O)N1CCC[C@H](N1)C(=O)OCC(C)(C)C2 (atropisomer, axis not shown) [Example A292] | > 8.00 | 6.00 to 7.00 | 6.00 to 7.00 | > 8.00 | > 5.30 | > 8.00 | 7.00 to 8.00 | > 8.00 | 7.00 to 8.00 | 6.00 to 7.00 |
| C=CC(=O)N1C[C@@H](C(=O)N(C)[C@H](C(=O)N[C@H]2Cc3cccc(c3)-c3ccc4c(c3)c(c(-c3cccnc3[C@H](C)OC)n4CC)CC(C)(C)COC(=O)[C@@H]3CCCN(N3)C2=O)C(C)C)C(C)(C)C1 (atropisomer, axis not shown) [Example A458] | 6.00 to 7.00 | 5.00 to 6.00 | < 5.00 | 7.00 to 8.00 | > 5.30 | 7.00 to 8.00 | 5.00 to 6.00 | 7.00 to 8.00 | 5.00 to 6.00 | 5.00 to 6.00 |
| CCn1c(-c2cccnc2[C@H](C)OC)c2c3cc(ccc31)-c1csc(n1)C[C@H](NC(=O)[C@H](C(C)C)N(C)C(=O)N1CCN(C(=O)C#CC(C)(C)N(C)C)CC1)C(=O)N1CCC[C@H](N1)C(=O)OCC(C)(C)C2 (atropisomer, axis not shown) [Example A479] | 7.00 to 8.00 | 7.00 to 8.00 | 6.00 to 7.00 | > 8.00 | > 5.30 | > 8.00 | 7.00 to 8.00 | > 8.00 | 7.00 to 8.00 | 6.00 to 7.00 |
| CCn1c(-c2cccnc2[C@H](C)OC)c2c3cc(ccc31)-c1csc(n1)C[C@H](NC(=O)[C@H](C)N(C)C(=O)[C@H]1CCN(C(=O)C#CC(C)(C)N3CCC3)C1)C(=O)N1CCC[C@H](N1)C(=O)OCC(C)(C)C2 (atropisomer, axis not shown) [Example A489] | 5.00 to 6.00 | 5.00 to 6.00 | < 5.00 | 7.00 to 8.00 | > 5.30 | 7.00 to 8.00 | 5.00 to 6.00 | 7.00 to 8.00 | 5.00 to 6.00 | 5.00 to 6.00 |
| CCn1c(-c2cccnc2[C@H](C)OC)c2c3cc(ccc31)-c1cccc(c1)C[C@H](NC(=O)[C@H](C(C)C)N(C)C(=O)[C@@H]1CCN(C(=O)C#CC(C)(C)N3CCC3)C1)C(=O)N1CCC[C@H](N1)C(=O)OCC(C)(C)C2 [Example A476] | 6.00 to 7.00 | 5.00 to 6.00 | 5.00 to 6.00 | 7.00 to 8.00 | > 5.30 | 7.00 to 8.00 | 5.00 to 6.00 | > 8.00 | 5.00 to 6.00 | 5.00 to 6.00 |
| CCn1c(-c2cccnc2[C@H](C)OC)c2c3cc(ccc31)-c1cc(O)cc(c1)C[C@H](NC(=O)[C@H](C(C)C)N(C)C(=O)N1CCN(C(=O)/C=C/CN(C)C)CC1)C(=O)N1CCC[C@H](N1)C(=O)OCC(C)(C)C2 (atropisomer, axis not shown) [Example A263] | 7.00 to 8.00 | 7.00 to 8.00 | 6.00 to 7.00 | 7.00 to 8.00 | > 5.30 | 7.00 to 8.00 | 6.00 to 7.00 | 6.00 to 7.00 | 6.00 to 7.00 | 7.00 to 8.00 |
| CCn1c(-c2cccnc2[C@H](C)OC)c2c3cc(ccc31)-c1cc(O)cc(c1)C[C@H](NC(=O)[C@H](C(C)C)N1CC[C@]3(CCN(C(=O)/C=C/CN(C)C)C3)C1=O)C(=O)N1CCC[C@H](N1)C(=O)OCC(C)(C)C2 (atropisomer, axis not shown) [Example A268] | 7.00 to 8.00 | 7.00 to 8.00 | 7.00 to 8.00 | > 8.00 | > 5.30 | > 8.00 | 7.00 to 8.00 | 7.00 to 8.00 | 7.00 to 8.00 | 7.00 to 8.00 |
| C=CC(=O)N1C[C@@H](C)N(C(=O)N(C)[C@H](C(=O)N[C@H]2Cc3nc(cs3)-c3ccc4c(c3)c(c(-c3cccnc3[C@H](C)OC)n4CC)CC(C)(C)COC(=O)[C@@H]3CCCN(N3)C2=O)C(C)C)C[C@H]1C (atropisomer, axis not shown) [Example A406] | 6.00 to 7.00 | 6.00 to 7.00 | 5.00 to 6.00 | 6.00 to 7.00 | > 5.30 | 6.00 to 7.00 | 6.00 to 7.00 | 7.00 to 8.00 | 6.00 to 7.00 | 6.00 to 7.00 |

Reference: patent publication US11566007B2, “Ras inhibitors” (Revolution Medicines, Inc., priority 2019, dated 2023)
